Structures can show the parent of a compound that is named as a salt.
Biological target: HIF PHD2 (Homo sapiens, UniProt Q9GZT9)
Assay: PHD2 inhibition assay (TR-FRET, VCB-Eu detection of hydroxylated P564-HIF1α peptide)
Format: biochemical
Settings: 2 nM PHD2, 100 nM P564-HIF1α peptide, 0.25 μM 2-oxoglutarate
Procedure, shortened: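 Human PHD2 (2 nM final) preincubated 1 h at room temperature with compound and 100 μM FeCl2 in pH 6 MES buffer, 5% DMSO final. Reaction with 100 nM biotinylated P564-HIF1α peptide, 2 mM ascorbate and 0.25 μM 2-oxoglutarate for 1 h, stopped with succinate. Hydroxylation read by TR-FRET (VCB-Eu/streptavidin-APC, 655/615 nm); IC50 from 4-parameter fit of percent of control.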

Chain of HIF PHD2 (Q9GZT9 whole entry): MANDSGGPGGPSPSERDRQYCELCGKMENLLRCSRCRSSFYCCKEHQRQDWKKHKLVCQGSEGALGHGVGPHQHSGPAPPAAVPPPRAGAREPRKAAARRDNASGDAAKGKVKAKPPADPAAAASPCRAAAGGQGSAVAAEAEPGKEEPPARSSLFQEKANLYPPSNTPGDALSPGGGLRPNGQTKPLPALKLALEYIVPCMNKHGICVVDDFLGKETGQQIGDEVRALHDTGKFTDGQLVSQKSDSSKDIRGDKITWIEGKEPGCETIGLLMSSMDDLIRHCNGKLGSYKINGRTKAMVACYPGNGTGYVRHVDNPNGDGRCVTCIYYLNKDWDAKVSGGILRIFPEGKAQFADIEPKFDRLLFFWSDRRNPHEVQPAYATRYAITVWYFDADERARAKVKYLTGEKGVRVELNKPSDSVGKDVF

| SMILES | IC50 |
| --- | --- |
| CC(C)Oc1cccc(-c2cnc3c(c2)c(O)c(C(=O)NCC(=O)O)c(=O)n3C)c1 [Example 38, N-((4-Hydroxy-1-methyl-6-(3-((1-methylethyl)oxy)phenyl)-2-oxo-1,2-dihydro-1,8-naphthyridin-3-yl)carbonyl)glycine] | 100 to 500 nM |
| Cn1c(=O)c(C(=O)NCC(=O)O)c(O)c2cc(-c3ccccc3C(F)(F)F)cnc21 [Example 42, N-((4-Hydroxy-1-methyl-2-oxo-6-(2-(trifluoromethyl)phenyl)-1,2-dihydro-1,8-naphthrydin-3-yl)carbonyl)glycine] | 50 to 100 nM |
| Cn1c(=O)c(C(=O)NCC(=O)O)c(O)c2cc(C3CCCCC3)cnc21 [Example 66, 2-(6-Cyclohexyl-4-hydroxy-1-methyl-2-oxo-1,2-dihydro-1,8-naphthyridine-3-carboxamido)acetic acid] | < 50 nM |
| Cc1ccnc(-c2cnc3c(c2)c(O)c(C(=O)NCC(=O)O)c(=O)n3C)n1 [Example 27, 2-(4-Hydroxy-1-methyl-6-(4-methylpyrimidin-2-yl)-2-oxo-1,2-dihydro-1,8-naphthyridine-3-carboxamido)acetic acid] | < 50 nM |
| Cn1c(=O)c(C(=O)NCC(=O)O)c(O)c2ccc(N3CCCCC3)nc21 [Example 22, 2-(4-Hydroxy-1-methyl-2-oxo-7-(piperidin-1-yl)-1,2-dihydro-1,8-naphthyridine-3-carboxamido)acetic acid] | 50 to 100 nM |
| CC(=O)N1CCC(c2cc3c(O)c(C(=O)NCC(=O)O)c(=O)n(C)c3cn2)CC1 [Example 119, 2-(6-(1-Acetylpiperidin-4-yl)-4-hydroxy-1-methyl-2-oxo-1,2-dihydro-1,7-naphthyridine-3-carboxamido)acetic acid, Trifluoroacetic acid salt] | < 50 nM |
| CC(=O)N1CC=C(c2cc3c(O)c(C(=O)NCC(=O)O)c(=O)n(C)c3cn2)CC1 [Example 118, 2-(6-(1-Acetyl-1,2,3,6-tetrahydropyridin-4-yl)-4-hydroxy-1-methyl-2-oxo-1,2-dihydro-1,7-naphthyridine-3-carboxamido)acetic acid, Trifluoroacetic acid salt] | < 50 nM |
| Cn1c(=O)c(C(=O)NCC(=O)O)c(O)c2cc(-c3ccccc3)ncc21 [Example 105, N-((4-Hydroxy-1-methyl-2-oxo-6-phenyl-1,2-dihydro-1,7-naphthyridin-3-yl)carbonyl)glycine] | < 50 nM |
| Cn1c(=O)c(C(=O)NCC(=O)O)c(O)c2ccc(C#CC3CC3)nc21 [Example 21, 2-(7-(2-Cyclopropylethynyl)-4-hydroxy-1-methyl-2-oxo-1,2-dihydro-1,8-naphthyridine-3-carboxamido)acetic acid] | < 50 nM |
| Cc1ncccc1-c1cc2c(O)c(C(=O)NCC(=O)O)c(=O)n(C)c2nc1C(F)(F)F [Example 92, 2-(4-Hydroxy-1-methyl-6-(2-methylpyridin-3-yl)-2-oxo-7-(trifluoromethyl)-1,2-dihydro-1,8-naphthyridine-3-carboxamido)acetic acid] | < 50 nM |
| CC(C)Oc1ccc(-c2cnc3c(c2)c(O)c(C(=O)NCC(=O)O)c(=O)n3C)cc1 [Example 37, N-((4-Hydroxy-1-methyl-6-(4-((1-methylethyl)oxy)phenyl)-2-oxo-1,2-dihydro-1,8-naphthyridin-3-yl)carbonyl)glycine] | 100 to 500 nM |
| Cn1c(=O)c(C(=O)NCC(=O)O)c(O)c2cc(Br)c(C(F)(F)F)nc21 [Example 94, 2-(6-Bromo-4-hydroxy-1-methyl-2-oxo-7-(trifluoromethyl)-1,2-dihydro-1,8-naphthyridine-3-carboxamido)acetic acid] | < 50 nM |
| C#Cc1cnc2c(c1)c(O)c(C(=O)NCC(=O)O)c(=O)n2C [Example 80, 2-(6-Ethynyl-4-hydroxy-1-methyl-2-oxo-1,2-dihydro-1,8-naphthyridine-3-carboxamido)acetic acid] | 100 to 500 nM |
| COc1ncc(-c2cnc3c(c2)c(O)c(C(=O)NCC(=O)O)c(=O)n3C)cn1 [Example 64, 2-(4-Hydroxy-6-(2-methoxypyrimidin-5-yl)-1-methyl-2-oxo-1,2-dihydro-1,8-naphthyridine-3-carboxamido)acetic acid] | 50 to 100 nM |
| CC#Cc1cnc2c(O)c(C(=O)NCC(=O)O)c(=O)n(C)c2c1 [Example 8, 2-(4-Hydroxy-1-methyl-2-oxo-7-(prop-1-ynyl)-1,2-dihydro-1,5-naphthyridine-3-carboxamido)acetic acid] | 50 to 100 nM |
| Cn1c(=O)c(C(=O)NCC(=O)O)c(O)c2cc(C#CC(C)(C)C)cnc21 [Example 78, N-((6-(3,3-Dimethyl-1-butyn-1-yl)-4-hydroxy-1-methyl-2-oxo-1,2-dihydro-1,8-naphthyridin-3-yl)carbonyl)glycine] | < 50 nM |
| Cc1ccc(-c2cnc3c(c2)c(O)c(C(=O)NCC(=O)O)c(=O)n3C)c(F)n1 [Example 48, N-((6-(2-Fluoro-6-methyl-3-pyridinyl)-4-hydroxy-1-methyl-2-oxo-1,2-dihydro-1,8-naphthyridin-3-yl)carbonyl)glycine] | < 50 nM |
| Cn1c(=O)c(C(=O)NCC(=O)O)c(O)c2ccnc(-c3ccccc3)c21 [Example 128, 2-(4-Hydroxy-1-methyl-2-oxo-8-phenyl-1,2-dihydro-1,7-naphthyridine-3-carboxamido)acetic acid] | < 50 nM |
| Cn1c(=O)c(C(=O)NCC(=O)O)c(O)c2cc(C#N)cnc21 [Example 85, N-((6-Cyano-4-hydroxy-1-methyl-2-oxo-1,2-dihydro-1,8-naphthyridin-3-yl)carbonyl)glycine] | < 50 nM |
| Cn1c(=O)c(C(=O)NCC(=O)O)c(O)c2cc(CCC3CC3)cnc21 [Example 81, 2-(6-(2-Cyclopropylethyl)-4-hydroxy-1-methyl-2-oxo-1,2-dihydro-1,8-naphthyridine-3-carboxamido)acetic acid] | < 50 nM |
